We go through two molecules from ChEMBL document CHEMBL3244291, “Synthesis and antiinflammatory activity of 6-oxo-1-(beta-D-ribofuranosyl)nocotinic acid and related derivatives” (J Med Chem, 1978).

The subject of data set [1] is Rattus norvegicus. In words: Antiinflammatory activity in Wistar rat mycobacterial adjuvant-induced arthritis model assessed as inhibition of swelling at 30 mg/kg/day, po measured on day 14 relative to control. The note with it: 336 h. The class given is functional.
Data set [2] concerns Rattus norvegicus. Kind of data set: Antiinflammatory activity in Wistar rat mycobacterial adjuvant-induced arthritis model assessed as suppression of secondary lesions at 30 mg/kg/day, po measured on day 14. In kind it is functional, organism-based.
Data set [3] deals with Rattus norvegicus. In words: Toxicity in Wistar rat mycobacterial adjuvant-induced arthritis model assessed as increase in body weight at 30 mg/kg/day, po after 14 days (reference value: 19 g). In kind it is organism-based. Further details: route oral. The note with it: in vivo, 336 h.
The test system of data set [4] is Rattus norvegicus. Kind of data set: Antiinflammatory activity in Wistar rat mycobacterial adjuvant-induced arthritis model assessed as inhibition of swelling at 30 mg/kg/day, po measured on day 3 relative to control. The following applies: 72 h. In kind it is functional.

Active and inactive are the calls of the source. The rule behind the calls is not given here.

`O=C(O)c1ccc(=O)n([C@@H]2O[C@H](CO)[C@@H](O)[C@H]2O)c1`: the inhibition in vivo at 30 mg/kg/day came out at 37% with Rattus norvegicus [1] and 21% with Rattus norvegicus [4]. The result in the data set with Rattus norvegicus [2] was inactive. In addition, the Activity in the data set on Rattus norvegicus [3] is listed as 22 g.

Consider `COc1ccc2cc([C@H](C)C(=O)O)ccc2c1` [NAPROXEN], for which the inhibition in vivo at 30 mg/kg/day with Rattus norvegicus [1] was determined as 65%.

As usually defined, the inhibition in vivo is how much of the control response was suppressed.
